The source of these data is PubChem BioAssay (NCI).

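Cells were grown in 96-well plates and exposed to each compound for 48 hours at five concentrations; endpoints were interpolated linearly between bracketing concentrations, or set to the highest concentration if not reached. At the TGI there is no net growth.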

Test in all cases: inhibition of tumour cell growth, NCI panel, 48 h
For test [1], the system named is NCI-H522 lung.
Test [2] concerns NCI-H23 lung.
The subject of test [3] is SNB-75 CNS.
The subject of test [4] is HCT-15 colon.
In test [5] the test system is HCC-2998 colon.
In test [6] the test system is HT29 colon.
The subject of test [7] is SK-MEL-5 melanoma.
Test [8] relates to SK-OV-3 ovarian.
For test [9], the system named is DU-145 prostate.
For test [10], the system named is KM12 colon.
Test [11] has as its system SF-295 CNS.
Test [12] deals with NCI/ADR-RES ovarian.
Test [13] relates to U251 CNS.
Test [14] concerns OVCAR-8 ovarian.
Test [15] deals with SF-268 CNS.
The subject of test [16] is HS 578T breast.
Test [17] has as its system A549 NSCLC.
For test [18], the system named is UACC-62 melanoma.
In test [19] the test system is SN12C renal.

Take `C=C1CC(COc2ccc3c(C)c(Cl)c(=O)oc3c2)(c2ccccc2)OC1=O` (stereo unspecified): the TGI in [1] came out at 3.93 µM; in [2], 3.84 µM; in [3] it was 11.7 µM; in test [4], 5.13 µM; in test [5] it was 3.59 µM; in test [6] it was 2.67 µM. The TGI is 3.63 µM in test [7]; 16.2 µM in [8]; 9.66 µM in [9]; 6.69 µM in test [10]; 22.7 µM in test [11]; 11.4 µM in test [12]. In addition, the TGI was determined as 20.4 µM in test [13]; 5.61 µM in test [14]; 19 µM in test [15]; 17.5 µM in test [16]; 27.9 µM in test [17]; 3.53 µM in [18]. In addition, the TGI in test [19] is 20.1 µM.
Take `CC(=O)N(CN1C(=O)CCC1C(=O)O)c1ccc(C)cc1` (stereo unspecified): the TGI in [1], in test [2], in [3], in [4], in test [5] and in [6] was over 100 µM each time. The TGI in test [7], in [8], in [9], in test [10], in test [11] and in [12] was over 100 µM in each case. For the same compound, the TGI in test [13], in [14], in test [15], in [16], in test [17] and in [18] was over 100 µM each time. In test [19], the TGI was over 100 µM.
For the compound `COc1c(C(=O)/C(=N/Nc2cccc(Cl)c2)C(C)=O)c(O)c(OC)c2occc12`, the TGI in test [1], in [2], in test [3], in [4], in test [5] and in [6] was over 100 µM in each case. Also, the TGI in test [7], in test [8], in test [9], in test [10], in test [11] and in test [12] was over 100 µM throughout. Also, the TGI in test [13], in test [14], in test [15], in test [16], in test [17] and in [18] was over 100 µM throughout. The compound further returned a TGI in test [19] of over 100 µM.
With `O=c1[nH]c(=S)n(-c2cccc3ccccc23)c(O)c1/C=C1\C=Nc2ccccc21`, the TGI in test [1] turned out to be 10.2 µM; in [2] it was 3.48 µM; in test [3], 6.42 µM; in test [4] it was 3.45 µM; in test [5], 3.5 µM; in test [6], 5.03 µM. For the same compound, the TGI came to 3.12 µM in test [7]; 14.5 µM in test [8]; 3.55 µM in test [9]; 6.87 µM in test [10]; 10.3 µM in test [11]; 10.5 µM in test [12]. In addition, the TGI in test [13] was found to be 5.45 µM; in [14], 6.86 µM; in test [15], 11.4 µM; in test [16] it was 58.8 µM; in test [17] it was 20.6 µM; in test [18] it was 3.26 µM. In [19], this compound came in with a TGI of 5.29 µM.
As to `Clc1ccc(C2ON=C(c3ccccc3)N2C23CC4CC(CC(C4)C2)C3)cc1Cl` (stereo unspecified), the TGI in [1], in test [2], in test [3], in [4], in [5] and in [6] was over 10 µM in each case. In addition, the TGI in [7], in test [8], in test [9], in [10], in test [11] and in test [12] was over 10 µM each time. Further, the TGI in [13], in [14], in test [15], in [16], in [17] and in test [18] was over 10 µM in each case. Moreover, the TGI in test [19] was over 10 µM.
For `Cc1nnc(N2C(=O)C(=Cc3ccc(Cl)cc3)N=C2c2ccc(Cl)cc2)nc1/C=C\c1ccc(N(C)C)cc1`, the TGI in test [1], in test [2], in [3], in test [4], in [5] and in test [6] was over 100 µM each time. For the same compound, the TGI in [7], in test [8], in test [9], in [10], in test [11] and in test [12] was over 100 µM in each case. Also, the TGI in test [13], in test [14], in [15], in test [16], in test [17] and in test [18] was over 100 µM in each case. The TGI in test [19] was over 100 µM.
In the case of `CCCCCCCCCCCCCCCCCCNc1ccn(C2OC(COP(=O)(O)OCC(COP(=O)(O)OCC3OC(n4cc(C)c(=O)[nH]c4=O)CC3N=[N+]=[N-])OCCCCCCCCCCCCCCCCCC)C(O)C2O)c(=O)n1` (stereo unspecified), the TGI is 96.5 µM in test [1]; over 100 µM in [2]; over 100 µM in test [3]; over 100 µM in test [4]; over 100 µM in test [5]; over 100 µM in [6]. The TGI in [7], in [8], in test [9], in test [10], in test [11] and in [12] was over 100 µM each time. For the same compound, the TGI in test [13] was 27.8 µM; in [14], over 100 µM; in test [15], over 100 µM; in [16], over 100 µM; in test [17], over 100 µM; in [18], over 100 µM. Moreover, the TGI in test [19] was over 100 µM.
`CC1(C)[C@H]2CC[C@](C)(C2)[C@]1(S)Cc1ccccn1`: the TGI in test [1] was over 100 µM; in [2] it was over 100 µM; in test [3], 77.1 µM; in test [4] it was over 100 µM; in test [5], 41.5 µM; in [6], over 100 µM. The TGI was 64.3 µM in test [7]; 93.6 µM in [8]; over 100 µM in test [9]; over 100 µM in [10]; 98.8 µM in test [11]; over 100 µM in test [12]. The TGI in [13] was 36.6 µM; in [14], 42.6 µM; in test [15] it was over 100 µM; in test [16] it was over 100 µM; in test [17], over 100 µM; in test [18] it was over 100 µM. The same compound returned a TGI in [19] of over 100 µM.
Regarding `Nc1nc(N)c2c(CCc3ccc(C(=O)N[C@@H](CCC(=O)O)C(=O)O)cc3)ccnc2n1`, the TGI was over 100 µM in [1]; over 100 µM in test [2]; over 100 µM in test [3]; over 100 µM in [4]; 0.0952 µM in [5]; over 100 µM in test [6]. Besides, the TGI in test [7], in test [8], in test [9], in test [10], in test [11] and in test [12] was over 100 µM throughout. Moreover, the TGI in test [13], in [14], in test [15], in test [16], in test [17] and in test [18] was over 100 µM in each case. The same compound had a TGI in test [19] of over 100 µM.
`CSC1=NC(=O)CCN1C1OCC(OC(C)=O)C(OC(C)=O)C1OC(C)=O` (stereo unspecified): the TGI is over 31.6 µM in [1]; over 31.6 µM in test [2]; 22.7 µM in test [3]; over 31.6 µM in [4]; over 31.6 µM in test [5]; over 31.6 µM in test [6]. Also, the TGI in [7] is 17.9 µM; in test [8], 29.5 µM; in [9], over 31.6 µM; in test [10] it was over 31.6 µM; in test [11], over 31.6 µM; in test [12], over 31.6 µM. Also, the TGI in [13] is over 31.6 µM; in [14] it was over 31.6 µM; in test [15], 29.3 µM; in test [16], 22.5 µM; in test [17], over 31.6 µM; in test [18], over 100 µM. In [19], the TGI was over 31.6 µM.
`c1ccc(C2(c3ccccc3)S/C(=C3/SC(c4ccccc4)(c4ccccc4)c4ccccc43)c3ccccc32)cc1`: the TGI in [1], in test [2], in test [3], in [4], in test [5] and in test [6] was over 100 µM in each case. The TGI in test [7], in [8], in test [9], in test [10], in test [11] and in [12] was over 100 µM in each case. Moreover, the TGI in [13], in test [14], in test [15], in test [16], in [17] and in [18] was over 100 µM in each case. In [19], the TGI is over 100 µM.
As for `Cc1cccc(C)c1NC(=O)C(=O)C(c1ccccc1Cl)S(=O)(=O)Cc1ccccc1Cl` (stereo unspecified), the TGI in [1] is over 100 µM; in [2] it was over 76.9 µM; in [3], over 44.1 µM; in [4] it was over 100 µM; in test [5] it was over 100 µM; in test [6], over 100 µM. Moreover, the TGI in test [7] is over 100 µM; in [8], over 61 µM; in test [9], over 100 µM; in test [10] it was over 100 µM; in test [11], over 75.2 µM; in test [12] it was over 100 µM. For the same compound, the TGI in [13] is over 100 µM; in [14], over 69.6 µM; in test [15] it was 66.6 µM; in test [16], over 100 µM; in test [17] it was over 100 µM; in test [18], over 100 µM. Moreover, in test [19], the TGI is over 100 µM.
Turning to `O=[N+]([O-])c1ccc(CSc2c3ccccc3nc3ccccc23)cc1`, the TGI in test [1] was 3.62 µM; in test [2], 25.5 µM; in test [3], 33.1 µM; in test [4] it was 27.5 µM; in test [5] it was 32.7 µM; in [6] it was 6.36 µM. Moreover, the TGI in [7] amounted to 30.5 µM; in test [8] it was 41.4 µM; in test [9], 5.92 µM; in test [10], 16.2 µM; in test [11], 41.7 µM; in [12], 52.1 µM. Besides, the TGI in test [13] is 20.9 µM; in test [14], 10.8 µM; in test [15], 22.8 µM; in test [16], 11.3 µM; in test [17] it was 51.4 µM; in [18] it was 29.3 µM. This compound also had a TGI in test [19] of 9.81 µM.
Regarding `CC(=O)Oc1c(C)cc2c(c1C)C(C)(C)CN2C(=O)C(C)(C)C`, the TGI in [1] is over 100 µM; in test [2] it was over 100 µM; in test [3] it was 31 µM; in [4] it was over 100 µM; in [5], over 100 µM; in test [6], over 100 µM. Further, the TGI in test [7], in test [8], in test [9], in test [10], in [11] and in [12] was over 100 µM in each case. Also, the TGI in test [13], in test [14], in test [15], in [16], in [17] and in test [18] was over 100 µM throughout. For the same compound, in test [19], the TGI is over 100 µM.
